Laboratory results: patent US20180030080A1, “Phosphoramidate nucleoside prodrug for treating viral diseases and cancer, processes for their preparation and their use” (ASAVI, LLC, priority 2016, published 2018)
Where two headings read alike, the source gives them in different places.

What was measured:
[1] = tested on: xenograft models of human pancreatic cancer; settings: in vivo; cited from earlier work
HBV wild-type = settings: against both the wild-type and resistant mutant; cited from earlier work
[2] = tested on: HBV lamivudine-entecavir resistant clone (L180M+M204V+S202G); settings: resistant mutant (L180M+M204V+S202G); cited from earlier work
HIV [3] = settings: in PBMCs, relative to TFV; cited from earlier work
[4] = 28-day toxicity studies in multiple species; cited from earlier work
[5] = Cytotoxicity (viability, CC50) reported with the anti-HBV test; format: cell-based; settings: human, HepG2 AD38 cells
HepG2 AD38 cell line = assay: as above; format: cell-based; settings: concentration not given
HBV = assay: Anti-HBV activity in the AD-38 cell line using real-time quantitative PCR; format: cell-based
Protocol: Anti-HBV activity of prodrugs of general formula 1 determination in the AD-38 cell line using a real-time quanitative PCR. a) Cell cultures. HepG2 AD38 cell line, harboring an integrated over-the-length HBV genomic DNA (Lander S, et. al, Antimicrobal Agents and Chemotherapy, 1997, pg. 1715-1720) were provided by Dr. C. Seeger, Fox Chase Cancer Center, Philadelphia, Pa.). Cells were grown in complete media (DMEM/F12 with 2 mM L-Glutamine (Thermo Scientific, Cat #11320033), 10% Fetal Bovine Serum (ThermoFisher Scientific, Cat#), 1% Antibiotic-antimitotic solution (ThermoFisher Scientific, Cat#15240096), and 0.3 μg/ml tetracyclin (Sigma, Cat # T7660-5G). Cells were plated onto Corning Biocoat 96-well plates (Corning, Cat #356407) in 225 ul of complete media (without teracyclin), 20000 cells/well. The prodrugs of general formula 1 were dissolved first in DMSO (Sigma cat. D2650), then in DMEM/F12 and 9 serial 3× dilutions were prepared and added to cells in 22.5 μl. The final prodrugs concentrations ranged from 10 μM to 1 nM. Cells grown in the presence of tetracyclin were used as a positive control, as HBV replication in this cell line is turned off by thetracyclin. Cell plates were incubated for 4 days at 37 C, 5% CO2. b) HBV DNA isolation. After 4 days, viral DNA was isolated from culture supernatants using PureLink® Pro 96 Genomic DNA Purification Kit (ThermoFisher Scientific, Cat # K183104A), according to manufacturer's recommendations. Eluted DNA samples were stored at −20 C. c) Quantitative real-time PCR (qPCR). PCR was performed on the CFX96™ Real-Time System (Bio-Rad, Hercules, Calif.) using AmpliTaq Gold® DNA Polymerase (Applied Biosystems®).
Ct values (cycle threshold) were obtained for each prodrug sample and normalized to untreated cells, according to formula E=(1/(1+100%))̂(Ct[studied prodrug sample]−Ct[K-]), where E is a normalized expression of studied gene, Ct[K-] and Ct[studied prodrug sample] are Ct values of untreated cells and studied prodrug sample. Inhibition curves were obtained and EC50 values were calculated using the Graph Prizm software (Table 3).

[6] = in the clinic; cited from earlier work
HCV replicon = settings: cited from earlier work
HIV [7] = settings: most potent and least cytotoxic analog; cited from earlier work
wild-type HIV-1 = settings: cited from earlier work
HCV replicon gT3a = assay: HCV replicon assay, genotype gT3a; format: cell-based; settings: Hepatitis C virus, mean
Protocol: (§1) Anti-HCV activity (EC50) and cytotoxicity (CC50) of prodrugs of general formula 1. The HCV replicon assay was used to determine the antiviral activity of chemotherapeutic agents of general formula 1 (test compounds). Sovaldi (PSI-7977) was used as the reference drug. The test cell line used in the HCV Replicon Assay was the human hepatoma cell line Huh7 incorporating the HCV replicons synthesized by an outside vendor. 96-well plates were seeded with cells at a density of 7.5×10^3 cells per well in 50 μl of assay media. The compound stock solution was made up freshly in an assay medium (DMEM 1×, Cellgro; cat. #10-013-CV) as a 2× stock. A total of 11 serial 3-fold dilutions of test compounds were prepared from the 2× stock in the assay media ranging from 20 nM-0.2 pM final concentrations. At least 4 hours after seeding the cells, compound treatment was initiated by adding 50 μl of compound dilution to the plates. […] The final DMSO concentration was 0.5%. Cells and inhibitors were incubated for 3 days at 37° C./5% CO2. The media was removed from the plates by gentle tapping. The cells were fixed with 100 μl 1:1 acetone:methanol for 1 minute, washed three times with PBS buffer, and then blocked with 150 μl/well 10% Fetal Bovine Serum (FBS) in PBS for 1 hour at room temperature. The cells were then washed three times with PBS buffer and incubated with 100 μl/well anti-hepatitis C core mAb (Affinity BioReagents; cat. # MA1-080, 1 mg/ml stock diluted 1:4,000 in 10% FBS-PBS) for 2 hours at 37° C. Then, the cells were washed three times with PBS and incubated with 100 μl/well HRP-Goat Anti-Mouse antibody (diluted 1:3.500 in 10% FBS-PBS) for 1 hour at 37° C. […] The reaction was stopped with 2N H2SO4 (100 μl/well), and the absorbance was measured at A490 X on a Victor^3 V 1420 multilabel counter (Perkin Elmer). The EC50 values were calculated for test compounds from the resulting best-fit equations determined by Xlfit software (Table 1).

HCV replicon gT5a = assay: HCV replicon assay, genotype gT5a; format: cell-based; settings: Hepatitis C virus, mean
Protocol: as §1

HCV replicon gT1b = assay: HCV replicon assay, genotype gT1b; format: cell-based; settings: Hepatitis C virus
Protocol: Anti-HCV activity (EC50) and cytotoxicity (CC50) of prodrugs of general formula 1. The HCV replicon assay was used to determine the antiviral activity of chemotherapeutic agents of general formula 1 (test compounds). Sovaldi (PSI-7977) was used as the reference drug. The test cell line used in the HCV Replicon Assay was the human hepatoma cell line Huh7 incorporating the HCV replicons synthesized by an outside vendor. 96-well plates were seeded with cells at a density of 7.5×10^3 cells per well in 50 μl of assay media. The compound stock solution was made up freshly in an assay medium (DMEM 1×, Cellgro; cat. #10-013-CV) as a 2× stock. A total of 11 serial 3-fold dilutions of test compounds were prepared from the 2× stock in the assay media ranging from 20 nM-0.2 pM final concentrations. At least 4 hours after seeding the cells, compound treatment was initiated by adding 50 μl of compound dilution to the plates. […] The final DMSO concentration was 0.5%. Cells and inhibitors were incubated for 3 days at 37° C./5% CO2. The media was removed from the plates by gentle tapping. The cells were fixed with 100 μl 1:1 acetone:methanol for 1 minute, washed three times with PBS buffer, and then blocked with 150 μl/well 10% Fetal Bovine Serum (FBS) in PBS for 1 hour at room temperature. The cells were then washed three times with PBS buffer and incubated with 100 μl/well anti-hepatitis C core mAb (Affinity BioReagents; cat. # MA1-080, 1 mg/ml stock diluted 1:4,000 in 10% FBS-PBS) for 2 hours at 37° C. Then, the cells were washed three times with PBS and incubated with 100 μl/well HRP-Goat Anti-Mouse antibody (diluted 1:3.500 in 10% FBS-PBS) for 1 hour at 37° C. The cells were then washed three times with PBS and developed with an OPD solution, 100 μl/well (1 OPD tablet+12 ml citrate/phosphate buffer+5 μl 30% H2O2 per plate), for 30 minutes in the dark at room temperature. The reaction was stopped with 2N H2SO4 (100 μl/well), and the absorbance was measured at A490 X on a Victor^3 V 1420 multilabel counter (Perkin Elmer). The EC50 values were calculated for test compounds from the resulting best-fit equations determined by Xlfit software (Table 1).

HCV replicon gT1a = assay: HCV replicon assay, genotype gT1a; format: cell-based; settings: Hepatitis C virus, mean
Protocol: as §1

Huh7 = assay: Cytotoxicity in Huh7 cells (ATPLite); format: cell-based, human; settings: at a concentration of 100 μM
Protocol: The cytotoxicity of the test compounds was studied in parallel using the same cell line, Huh7. Cell viability was determined using the ATPLite Kit (Perkin-Elmer, Boston, USA), according to manufacturer's instructions. 96-well black/transparent bottom plates were seeded with cells at a density of 7.5×10^3 cells per well in 50 μl medium. After 18 hours, compound treatment was initiated by adding 50 μl of compound dilution into the plates. Each compound dilution was tested in triplicates. The cells and inhibitors were then incubated for 96 hours at 37° C./5% CO2. The plates were washed twice with PBS (0.2 ml/well), and then lysed by adding lysis buffer, 0.05 ml/well (all reagents were included with the ATPLite Kit). After rocking for 5 min on a rocking platform, substrate buffer was added (0.05 ml/well). After additional 5-min incubation, the plates were kept in dark for 10 min, and the luminescence was read using TopCount NXT (Packard, Perkin Elmer). CC50 values for all test compounds were determined using XLfit 4.1 software.

HCV replicon gT4a = assay: HCV replicon assay, genotype gT4a; format: cell-based; settings: Hepatitis C virus, mean
Protocol: as §1

HCV replicon gT2a = assay: HCV replicon assay, genotype gT2a; format: cell-based; settings: Hepatitis C virus, mean
Protocol: Anti-HCV activity (EC50) and cytotoxicity (CC50) of prodrugs of general formula 1. The HCV replicon assay was used to determine the antiviral activity of chemotherapeutic agents of general formula 1 (test compounds). Sovaldi (PSI-7977) was used as the reference drug. The test cell line used in the HCV Replicon Assay was the human hepatoma cell line Huh7 incorporating the HCV replicons synthesized by an outside vendor. 96-well plates were seeded with cells at a density of 7.5×10^3 cells per well in 50 μl of assay media. The compound stock solution was made up freshly in an assay medium (DMEM 1×, Cellgro; cat. #10-013-CV) as a 2× stock. A total of 11 serial 3-fold dilutions of test compounds were prepared from the 2× stock in the assay media ranging from 20 nM-0.2 pM final concentrations. At least 4 hours after seeding the cells, compound treatment was initiated by adding 50 μl of compound dilution to the plates. The final concentrations of compound therefore ranged from 10 nM to 0.1 pM when diluted 1:1 in culture media. The final DMSO concentration was 0.5%. Cells and inhibitors were incubated for 3 days at 37° C./5% CO2. The media was removed from the plates by gentle tapping. The cells were fixed with 100 μl 1:1 acetone:methanol for 1 minute, washed three times with PBS buffer, and then blocked with 150 μl/well 10% Fetal Bovine Serum (FBS) in PBS for 1 hour at room temperature. The cells were then washed three times with PBS buffer and incubated with 100 μl/well anti-hepatitis C core mAb (Affinity BioReagents; cat. # MA1-080, 1 mg/ml stock diluted 1:4,000 in 10% FBS-PBS) for 2 hours at 37° C. Then, the cells were washed three times with PBS and incubated with 100 μl/well HRP-Goat Anti-Mouse antibody (diluted 1:3.500 in 10% FBS-PBS) for 1 hour at 37° C. […] The reaction was stopped with 2N H2SO4 (100 μl/well), and the absorbance was measured at A490 X on a Victor^3 V 1420 multilabel counter (Perkin Elmer). The EC50 values were calculated for test compounds from the resulting best-fit equations determined by Xlfit software (Table 1).

## C[C@H](NP(=O)(OC[C@H]1O[C@@H](n2ccc(N)nc2=O)C(F)(F)[C@@H]1O)Oc1ccccc1)C(=O)OCc1ccccc1 (stereo partly drawn) [NUC-1031, Gemcitabin-5′-phosphoramidate]
[1]
  tumor volume: significantly reduced tumor volume

## 2′-Fluoro-6′-methylene-carbocyclic adenosine phosphoramidate [5′-phosphoramidate of FMCA]
HBV wild-type
  more potent than FMCA: 10 fold
[2]
  EC50: 54 nM

## CC(C)OC(=O)[C@H](C)N[P@](=O)(CO[C@H](C)Cn1cnc2c(N)ncnc21)Oc1ccccc1 [TAF, (S)-Isopropyl 2-(((S)-((((R)-1-(6-amino-9H-purin-9-yl)propan-2-yl)oxy)methyl)(phenoxy)-phosphoryl)amino)propanoate]
HIV [3]
  more potent than TFV: 400 fold

## CC(C)OC(=O)[C@H](C)N[P@](=O)(CO[C@@H]1C=C(F)C(n2cnc3c(N)ncnc32)O1)Oc1ccccc1 (stereo partly drawn) [GS-9131]
[4]
  renal findings: no significant renal findings

## C=CCOC(=O)[C@H](C)N[P@](=O)(OC[C@@H]1O[C@H](n2cc(C)c(=O)[nH]c2=O)[C@H](F)[C@H]1O)Oc1ccccc1 [1.2(67), allyl (S)-2-{(S)-[(2S,3S,4R,5S)-4-fluoro-3-hydroxy-5-(5-methyl-2,4-dioxo-3,4-dihydro-2H-pyrimidin-1-yl)-tetrahydro-furan-2-ylmethoxy]-phenoxy-phosphorylamino}-propanoate]
[5]
  CC50: > 30000 nM
HepG2 AD38 cell line
  viability, %: 95%
HBV; Hepatitis B virus, 96 h
  EC50: 760 ± 110 nM
HBV; against HBV, concentration not given
  inhibition, %: 88%

## COc1nc(N)nc2c1ncn2[C@@H]1O[C@H](COP(=O)(N[C@@H](C)C(=O)OCC(C)(C)C)Oc2cccc3ccccc23)[C@@H](O)[C@@]1(C)O (stereo partly drawn) [INX-08189]
[6]
  cardiovascular toxicity: severe cardiovascular toxicity
HCV replicon
  EC50: 10 nM

## CCOC(=O)[C@H](C)N[P@](=O)(OC[C@@H]1OC[C@H](n2cnc3c(NC4CC4)ncnc32)O1)Oc1ccccc1 [dioxolane-A mono-phosphoramidate]
HIV [7]
  EC50: 86 nM

## CCOC(=O)[C@H](C)N[P@](=O)(OC[C@@H]1OC[C@H](n2cc(C)c(=O)[nH]c2=O)O1)Oc1ccc(Br)cc1 [DOT-phosphoramidate, D-dioxolane-thymine 5′-(4-bromophenylethyloxy-L-alanyl-phosphate)]
wild-type HIV-1
  more potency relative to DOT: 75 fold

## CC(C)OC(=O)[C@H](C)NP(=O)(OC[C@H]1O[C@@H](n2ccc(=O)[nH]c2=O)[C@](C)(F)[C@@H]1O)Oc1ccccc1 (stereo partly drawn) [PSI-7851, reference compound]
HCV replicon gT3a
  IC50: 152 nM
HCV replicon gT5a
  IC50: 395 nM
HCV replicon gT1b; GT1B, read-out: IC50 HCV gT1b 10% FBS (mean)
  IC50: 61 nM
HCV replicon gT1b; gT1b, 40% NHS, mean, read-out: IC50 HCV gT1b 40% NHS (mean)
  IC50: 80 nM
HCV replicon gT1a
  IC50: 103 nM
Huh7
  Cell death: 31%
HCV replicon gT4a
  IC50: 350 nM
HCV replicon gT2a
  IC50: 39 nM
